Tests used:
[1] = molecular target: alpha-1 adrenergic receptor; assay: Brain Alpha-1 Radioreceptor Assay (3H-prazosin); conditions: guinea pig brain membranes, 30 minutes, 30° C., read-out: RECEPTOR BINDING ALPHA-1 (IC50)
Procedure: Membrane fragments were prepared from the brains of mature female guinea pigs after removal of the corpus striata. The alpha-1 adrenergic receptor sites were labeled with ^3 H-prazosin. Membrane fragments, ^3 H-prazosin and an unlabeled test compound were incubated for 30 minutes at 30° C. Compound bound to the receptor site was separated from the remaining unbound radioligand by vacuum filtration. Specific binding was determined by the difference between total counts bound and counts bound in the presence of 10-^5 M phentolamine.

[2] = molecular target: T1, 5HT1A receptor (Rattus norvegicus, UniProt P19327); assay: Brain Serotonin 5HT1A Radioreceptor Assay (3H-80H-DPAT); type: binding; conditions: for IC50: rat frontal cortex membranes, 10 minutes, 37° C., read-out: RECEPTOR BINDING 5HT-1A (IC50); for inhibition at 1 µM: @ 10^-6, rat frontal cortex membranes, read-out: RECEPTOR BINDING 5HT-1A, % @ 10^-6
T1 construct: Membrane fragments were prepared from the frontal cortex dissected from brains obtained from female rats; from tissue; host or cells: frontal cortex, female rats
T1 sequence (P19327 1-422): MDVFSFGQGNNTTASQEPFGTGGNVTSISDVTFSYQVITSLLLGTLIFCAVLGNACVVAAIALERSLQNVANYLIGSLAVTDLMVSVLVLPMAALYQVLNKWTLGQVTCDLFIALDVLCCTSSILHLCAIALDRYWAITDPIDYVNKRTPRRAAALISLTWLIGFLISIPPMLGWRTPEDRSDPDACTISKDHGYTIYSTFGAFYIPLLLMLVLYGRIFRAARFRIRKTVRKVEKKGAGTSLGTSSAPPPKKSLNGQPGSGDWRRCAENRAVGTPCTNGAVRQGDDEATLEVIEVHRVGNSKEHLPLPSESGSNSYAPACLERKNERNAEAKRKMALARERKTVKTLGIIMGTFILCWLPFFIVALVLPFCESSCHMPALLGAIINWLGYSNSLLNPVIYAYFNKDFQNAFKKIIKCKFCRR
Procedure: Membrane fragments were prepared from the frontal cortex dissected from brains obtained from female rats (~150 g). The 5HT1A sites were labeled with ^3 H-80H-dipropylaminotetralin (^3 H-80H-DPAT). Membrane fragments, ^3 H-80H-DPAT and an unlabeled test compound were incubated for 10 minutes at 37° C. The tubes were then placed in an ice bath for an additional 10 minutes. Compound bound to the receptor site was separated from the remaining unbound compound by vacuum filtration.
The ability of a nonlabeled compound to compete with ^3 H-80H-DPAT for binding sites was a measure of the compound's affinity for the 5HT1A receptor. Specific binding was determined by the difference between total counts bound and counts bound in the presence of 10^-5 M serotonin.
Data are presented at the IC50, the concentration of nonlabeled compound required to displace 50% of the ^3 H-80H-DPAT specifically bound to 5HT1A binding sites.

[3] = molecular target: T2, 5HT2 receptor (Rattus norvegicus, UniProt P14842); assay: Brain Serotonin 5HT2 Radioreceptor Assay (3H-ketanserin); type: binding; conditions: for IC50: rat frontal cortex membranes, 15 minutes, 37° C., read-out: RECEPTOR BINDING 5HT-2 (IC50); for inhibition at 1 µM: 0.25 h, @ 10^-6, rat frontal cortex membranes, read-out: RECEPTOR BINDING 5HT-2, % @ 10^-6
T2 construct: Membrane fragments were prepared from the frontal cortex dissected from brains obtained from female rats; from tissue; host or cells: frontal cortex, female rats
Procedure: Membrane fragments were prepared from the frontal cortex dissected from brains obtained from female rats (~150 g). The 5HT2 sites were labeled with ^3 H-ketanserin. Membrane fragments, ^3 H-ketanserin and an unlabeled test compound were incubated for 15 minutes at 37° C. Compound bound to the receptor site was separated from the remaining unbound compound by vacuum filtration.
The ability of a nonlabeled compound to compete with ^3 H-ketanserin for binding sites was a measure of the compound's affinity for the 5HT2 receptor. Specific binding was determined by the difference between total counts bound and counts bound in the presence of 10^-6 M methysergide.
Data are presented as the IC50, the concentration of nonlabeled compound required to displace 50% of the ^3 H-ketanserin specifically bound to 5HT2 binding sites.

T2 sequence (P14842 whole entry, the tested form may be a part): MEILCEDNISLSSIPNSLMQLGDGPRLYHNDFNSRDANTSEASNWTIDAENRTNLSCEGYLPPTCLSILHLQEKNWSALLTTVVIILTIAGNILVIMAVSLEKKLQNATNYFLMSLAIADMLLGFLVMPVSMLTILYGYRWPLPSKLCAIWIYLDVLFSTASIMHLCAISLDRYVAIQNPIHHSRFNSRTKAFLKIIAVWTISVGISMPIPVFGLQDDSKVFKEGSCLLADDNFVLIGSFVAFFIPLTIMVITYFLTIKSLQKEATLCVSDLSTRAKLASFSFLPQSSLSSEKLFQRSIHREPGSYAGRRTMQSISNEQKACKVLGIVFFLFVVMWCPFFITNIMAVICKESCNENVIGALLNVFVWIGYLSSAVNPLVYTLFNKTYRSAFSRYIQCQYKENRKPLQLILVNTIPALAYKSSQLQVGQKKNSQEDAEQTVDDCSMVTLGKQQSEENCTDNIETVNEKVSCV

| SMILES | IC50 [1] | IC50 [2] | IC50 [3] | inhibition at 10 µM ([2]; @ 10^-5, rat frontal cortex membranes, read-out: RECEPTOR BINDING 5HT-1A, % @ 10^-5) | inhibition at 1 µM [3] | inhibition at 1 µM [2] |
| --- | --- | --- | --- | --- | --- | --- |
| COc1ccccc1N1CCN(CCCCn2c(=O)c3csc4c3n(c2=O)CCC4=O)CC1 [Example 11, 3,4,5,7,8,9-Hexahydro-4-[4-[4-(2-methoxyphenyl)-piperazin-1-yl]butyl]thieno[4,3,2-de]pyrido[1,2-c]pyrimidine-3,5,9-trione] | 0.5 nM | 0.9 nM |  |  | 33% |  |
| O=C1CCn2c(=O)n(CCN3CC=C(c4ccccc4)CC3)c(=O)c3csc1c32 [Example 17, 3,4,5,7,8,9-Hexahydro-4-[2-(4-phenyl-1,2,3,6-tetrahydropyridin-1-yl)ethyl]thieno[4,3,2-de]pyrido[1,2-c]pyrimidine-3,5,9-trione] | 7.6 nM |  |  |  | 21% | 1.8% |
| O=C1CCn2c(=O)n(CCCCN3CCN(c4cccc(C(F)(F)F)c4)CC3)c(=O)c3csc1c32 [Example 18, 4-[4-[4-(3-Trifluoromethylphenyl)piperazin-1-yl]butyl]-3,4,5,7,8,9-hexahydrothieno[4,3,2-de]-pyrido[1,2-c]pyrimidine-3,5,9-trione] | 4500 nM |  |  |  | 47% |  |
| O=C1CCn2c(=O)n(CCN3CCC(C(=O)c4ccc(F)cc4)CC3)c(=O)c3csc1c32 [Example 19, 4-[2-[4-(4-Fluorobenzoyl)piperidin-1-yl]ethyl]-3,4,5,7,8,9-hexahydrothieno[4,3,2-de]pyrido[1,2-c]pyrimidine-3,5,9-trione] | 1000 nM |  | 1 nM |  |  | 35% |
| O=C1CCn2c(=O)n(CCN3CCC(=C(c4ccc(F)cc4)c4ccc(F)cc4)CC3)c(=O)c3csc1c32 [Example 20, 4-[2-[4-[Bis(4-fluorophenyl)methylene]piperidin-1-yl]ethyl]-3,4,5,7,8,9-hexahydrothieno[4,3,2-de]pyrimidine-3,5,9-trione] | 22000 nM |  | 180 nM |  |  | 47% |
| CON=C1CCCn2c(=O)n(CCN3CCN(c4ccccc4OC)CC3)c(=O)c3csc1c32 [Example 27, 4,7,8,9-Tetrahydro-10-methoxyimino-4-[2-[4-(2-methoxyphenyl)piperazin-1-yl]ethyl]thieno[4,3,2-de]pyrimido[3,4-a]azepine-3,5-dione] | 0.14 nM | 70 nM |  |  | 11% |  |
| CON=C1CCn2c(=O)n(CCCN3CCN(c4ccccc4OC)CC3)c(=O)c3csc1c32 [Example 29, 3,4,5,7,8,9-Hexahydro-9-methoxyimino-4-[3-[4-(2-methoxyphenyl)piperazin-1-yl]propyl]thieno-[4,3,2-de]pyrido[1,2-c]pyrimidine-3,5-dione] | 26 nM |  |  |  | 34.3% | 5.2% |
| COc1ccccc1N1CCN(CCn2c(=O)c3csc4c3n(c2=O)CCC4NC(=O)c2ccccc2)CC1 (stereo not shown) [Example 40, 9-Benzoylamino-3,4,5,7,8,9-hexahydro-4-[2-[4-(2-methoxyphenyl)piperazin-1-yl]ethyl]thieno[4,3,2-de]pyrido[1,2-c]pyrimidine-3,5-dione] | 3 nM |  | 2500 nM | 45% |  |  |
| CON=C1CCn2c(=O)n(CCN3CCN(c4cccc(Cl)c4)CC3)c(=O)c3csc1c32 [Example 41, 4-[2-[4-(3-Chlorophenyl)piperazin-1-yl]ethyl]-3,4,5,7,8,9-hexahydro-9-methoxyiminothieno[4,3,2-de]pyrido[1,2-c]pyrimidine-3,5-dione] | 40000 nM | 1000 nM | 1000 nM |  |  |  |
| O=C1CCn2c(=O)n(CCCCN3CCC(C(=O)c4ccc(F)cc4)CC3)c(=O)c3csc1c32 [Example 42, 4-[4-[4-(4-Fluorobenzoyl)piperidin-1-yl]butyl]-3,4,5,7,8,9-hexahydrothieno[4,3,2-de]pyrido[1,2-c]pyrimidine-3,5,9-trione] | 540 nM | 400 nM | 630 nM |  |  |  |
| O=C1CCn2c(=O)n(CCCCCN3CCN(c4cccc(C(F)(F)F)c4)CC3)c(=O)c3csc1c32 [Example 43] |  | 52 nM | 430 nM |  |  |  |
| CON=C1CCn2c(=O)n(CCCCCN3CCN(c4cccc(C(F)(F)F)c4)CC3)c(=O)c3csc1c32 [Example 44, 4-[5-[4-(3-Trifluoromethylphenyl)piperazin-1-yl]-pentyl]-3,4,5,7,8,9-hexahydro-9-methoxyiminothieno[4,3,2-de]pyrido[1,2-c]pyrimidine-3,5-dione] |  | 200 nM | 130 nM |  |  |  |
| O=C1CCn2c(=O)n(CCCCCN3CCC(=C(c4ccc(F)cc4)c4ccc(F)cc4)CC3)c(=O)c3csc1c32 [Example 45, 4-[5-[4-[Bis(4-fluorophenyl)methylene]piperadin-1-yl]pentyl]-3,4,5,7,8,9-hexahydrothieno[4,3,2-de]pyrimidine-3,5,9-trione Monooxalate] |  | 240 nM | 55 nM |  |  |  |

More lines, main results first:

| IC50 [1] | IC50 [2] | IC50 [3] | inhibition at 10 µM ([2]; @ 10^-5, rat frontal cortex membranes, read-out: RECEPTOR BINDING 5HT-1A, % @ 10^-5) | SMILES | inhibition at 1 µM [3] | inhibition at 1 µM [2] |
| --- | --- | --- | --- | --- | --- | --- |
| 1000 nM | 28 nM | 700 nM |  | O=C1CCn2c(=O)n(CCN3CCN(c4cccc(C(F)(F)F)c4)CC3)c(=O)c3csc1c32 [Example 6, 4-[2-[4-(3-Trifluoromethylphenyl)piperazin-1-yl]ethyl]-3,4,5,7,8,9-hexahydrothieno[4,3,2-de]-pyrido[1,2-c]pyrimidine-3,5,9-trione] |  |  |
| 180 nM | 5 nM | 350 nM |  | O=C1CCn2c(=O)n(CCN3CCN(c4cccc(Cl)c4)CC3)c(=O)c3csc1c32 [Example 7, 4-[2-[4-(3-Chlorophenyl)piperazin-1-yl]ethyl]-3,4,5,7,8,9-hexahydrothieno[4,3,2-de]pyrido[1,2-c]pyrimidine-3,5,9-trione] |  |  |
| 21 nM | 5 nM | 300 nM |  | COc1ccccc1N1CCN(CCCn2c(=O)c3csc4c3n(c2=O)CCC4=O)CC1 [Example 10, 3,4,5,7,8,9-Hexahydro-4-[3-[4-(2-methoxyphenyl)piperazin-1-yl]propyl]thieno[4,3,2-de]pyrido[1,2-c]pyrimidine-3,5,9-trione] |  |  |
|  | 45 nM | 1500 nM |  | COc1ccccc1N1CCN(CCCCCn2c(=O)c3csc4c3n(c2=O)CCC4=O)CC1 [Example 12, 3,4,5,7,8,9-Hexahydro-4-[5-[4-(2-methoxyphenyl)piperazin-1-yl]pentyl]thieno[4,3,2-de]pyrido[1,2-c]pyrimidine-3,5,9-trione] |  |  |
| 35 nM | 160 nM | 2000 nM |  | COc1ccccc1N1CCN(CCn2c(=O)c3csc4c3n(c2=O)CCCCC4=O)CC1 [Example 16, 4,7,8,9,10,11-Hexahydro-4-[2-[4-(2-methoxyphenyl)piperazin-1-yl]ethyl]thieno[4,3,2-de]pyrimido[3,4-a]azocine-3,5,11-trione] |  |  |
| 0.4 nM | 62 nM | 270 nM |  | COc1ccccc1N1CCN(CCn2c(=O)c3csc4c3n(c2=O)CCCC4O)CC1 (stereo not shown) [Example 22, 10-Hydroxy-4,7,8,9-tetrahydro-4-[2-[4-(2-methoxyphenyl)piperazin-1-yl]ethyl]thieno[4,3,2-de]pyrimido[3,4-a]azepine-3,5-dione] |  |  |
| < 1 nM | 20 nM | 150 nM |  | CON=C1CCn2c(=O)n(CCN3CCN(c4ccccc4OC)CC3)c(=O)c3c(C)sc1c32 [Example 28, 3,4,5,7,8,9-Hexahydro-9-methoxyimino-4-[2-[4-(2-methoxyphenyl)piperazin-1-yl]ethyl]-2-methyl-thieno[4,3,2-de]pyrido[1,2-c]pyrimidine-3,5-dione] |  |  |
| 0.35 nM | 580 nM | 750 nM |  | COc1ccccc1N1CCN(CCn2c(=O)c3csc4c3n(c2=O)CCC4NC(C)=O)CC1 (stereo not shown) [Example 39, 9-Acetylamino-3,4,5,7,8,9-hexahydro-4-[2-[4-(2-methoxyphenyl)piperazin-1-yl]ethyl]thieno[4,3,2-de]pyrido[1,2-c]pyrimidine-3,5-dione] |  |  |

Reference: US4939137A, “Ring-fused thienopyrimidinedione derivatives” (Ortho Pharmaceutical Corporation, priority 1989, dated 1990)
